Earlier results, collected in patent publication US6949636B2, “Intron/exon structure of the human and mouse β3-adrenergic receptor genes” (Centre National de la Recherche Scientifique, priority 1989, dated 2005).

Assays:
β3-adrenergic receptor = β3-adrenergic receptor (Homo sapiens, UniProt P13945); settings: activity increases in the order salbutamol, BRL 28410, BRL 37344, (1)-isoproterenol; from earlier filings
[1] = molecular target: mouse β3-adrenergic receptor (Mus musculus, UniProt P25962); settings: background statement, earlier filing / Nahmias et al.
Sequence of mouse β3-adrenergic receptor (P25962 1-388 limits assumed): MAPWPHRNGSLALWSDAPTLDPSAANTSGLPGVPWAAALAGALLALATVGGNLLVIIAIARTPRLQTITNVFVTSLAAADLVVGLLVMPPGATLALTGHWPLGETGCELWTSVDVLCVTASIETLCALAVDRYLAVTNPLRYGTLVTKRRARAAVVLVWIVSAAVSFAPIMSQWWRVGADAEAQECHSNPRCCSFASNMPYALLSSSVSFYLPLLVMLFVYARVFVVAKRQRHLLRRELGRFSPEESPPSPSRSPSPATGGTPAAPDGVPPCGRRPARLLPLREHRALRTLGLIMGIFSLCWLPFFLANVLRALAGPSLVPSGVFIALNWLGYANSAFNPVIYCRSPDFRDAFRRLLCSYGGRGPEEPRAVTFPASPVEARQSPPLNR

Sequence of β3-adrenergic receptor (P13945 1-402 limits assumed): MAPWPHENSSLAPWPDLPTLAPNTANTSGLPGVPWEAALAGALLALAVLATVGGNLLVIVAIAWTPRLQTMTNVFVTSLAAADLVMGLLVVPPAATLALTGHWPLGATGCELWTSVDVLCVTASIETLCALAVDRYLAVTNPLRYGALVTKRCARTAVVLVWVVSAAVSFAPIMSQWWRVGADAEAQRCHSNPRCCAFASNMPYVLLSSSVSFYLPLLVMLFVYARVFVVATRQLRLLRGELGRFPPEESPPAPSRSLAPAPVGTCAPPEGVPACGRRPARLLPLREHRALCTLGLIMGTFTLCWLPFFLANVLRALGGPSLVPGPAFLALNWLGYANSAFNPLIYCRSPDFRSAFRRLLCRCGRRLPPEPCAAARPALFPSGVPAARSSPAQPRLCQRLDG

Row | activation of mouse β3-adrenergic receptor [1] | SMILES | activating adenylate cyclase in the presence of an agonist (β3-adrenergic receptor)
1 |  | C[C@H](Cc1ccc(C(=O)O)cc1)NC[C@H](O)c1ccccc1 [BRL 28410] | activating adenylate cyclase
2 | can be activated | CC(C)(C)NCC(O)COc1cccc2[nH]c(=O)[nH]c12 (centres unmarked) [CGP 12177A] | 
3 | can be activated | C=CCOc1ccccc1OCC(O)CNC(C)C (centres unmarked) [oxprenolol] | 
4 | can be activated | CC(C)NCC(O)COc1cccc2[nH]ccc12 (centres unmarked) [pindolol] | 
5 |  | CC(C)(C)NCC(O)c1ccc(O)c(CO)c1 (centres unmarked) [salbutamol] | activating adenylate cyclase
